Data set [1] deals with T1, papain (Carica papaya, UniProt P00784).
T1 sequence (P00784 134-345): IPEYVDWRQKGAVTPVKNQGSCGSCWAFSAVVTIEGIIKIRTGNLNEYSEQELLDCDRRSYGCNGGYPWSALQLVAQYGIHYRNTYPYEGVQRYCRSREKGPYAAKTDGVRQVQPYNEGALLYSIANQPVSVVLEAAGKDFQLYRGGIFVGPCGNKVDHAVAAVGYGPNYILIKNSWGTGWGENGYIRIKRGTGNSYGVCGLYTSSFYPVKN
The note with it: literature (Whitesides group; Lukesh et al., 2012); cited from earlier work.

The target of data set [2] is T2, latent papain (Carica papaya, UniProt P00784).
T2 construct: purchased Sigma Aldrich (Munich, Germany); host or cells: Papaya latex (natural source)
T2 sequence (P00784 134-345): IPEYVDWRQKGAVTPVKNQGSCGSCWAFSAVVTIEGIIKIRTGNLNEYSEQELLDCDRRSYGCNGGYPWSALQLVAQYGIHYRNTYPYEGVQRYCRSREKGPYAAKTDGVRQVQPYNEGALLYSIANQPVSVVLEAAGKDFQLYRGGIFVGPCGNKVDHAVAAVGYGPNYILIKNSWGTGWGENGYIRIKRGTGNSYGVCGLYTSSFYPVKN
Description: Latent papain reactivation with selenium/thiol activators in presence of TCEP, rates normalized to blank (FIG. 22). Format: biochemical. The note with it: latent papain 1 nM; for activator efficiency (normalized rate/rate blank), in words: 50 pM-100 nM activator, 1 μM TCEP (FIG. 22). The procedure: To this end, cysteine ethyl ester, DTT, DTBA (9) and SeDTBA (11) were chosen for a direct comparison. […] The resulting reaction rates were normalized against the background activity and the resulting normalized rates are presented in FIG. 22 for the concentration range of 50 pM-100 nM.
Different assays of reactivating latent papain in solution were conducted in the course of this work. Various buffer compositions, supplements, 96 well plates, substrates, activators, concentrations as well as different latent papain forms were compared. In order to get an overview of all experiments, a standard method is described in the following and variations of this method are subsequently defined. First, the well buffer was prepared (0.1 M phosphate buffer pH 7, 4 mM EDTA, 0.01% Brij35). A 1 mM TCEP solution was prepared with 3 mM NaOH in 0.1 M Tris-HCl buffer pH 8. Papain substrate (Z-Phe-Arg-AMC or Suc-Leu-Leu-Val-Tyr-AMC) was prepared as a 200 μM solution in water and transferred equally to a PCR strip. Three serial dilutions of the activating agent with well buffer were used in the different experiments and the corresponding pipetting schemes are shown in Table 9. Papain was diluted to 0.1 μM with well buffer and transferred equally to a PCR strip. […] After mixing, 30 μL of the prepared activator concentrations (see Table 9) were added and mixed. In the last step, 3.8 μL of the substrate solution was added and mixed, to yield a final well composition of 0.1 M phosphate buffer pH 7, 1 nM papain, 2 μM substrate, activator (see Table 9), 4 mM EDTA, 0.01% Brij35 and 1 μM TCEP. For experiments with only one activator concentration of 10 μM, the transferred well buffer for each well was 368.6 μL, followed by 3.8 μL of papain, substrate and activator (1 mM in well buffer) respectively.

For data set [3], the target named is T3, latent papain P13 (Carica papaya, UniProt P00784).
T3 construct: purchased Sigma Aldrich (Munich, Germany); host or cells: Papaya latex (natural source)
T3 sequence (P00784 134-345): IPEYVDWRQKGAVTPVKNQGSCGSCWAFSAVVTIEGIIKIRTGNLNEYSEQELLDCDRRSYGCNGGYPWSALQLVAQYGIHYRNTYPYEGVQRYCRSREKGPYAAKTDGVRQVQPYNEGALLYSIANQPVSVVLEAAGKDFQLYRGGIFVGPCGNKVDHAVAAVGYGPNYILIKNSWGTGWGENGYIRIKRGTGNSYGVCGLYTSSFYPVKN
Put plainly: Screening of peptide-based papain activators, rates normalized to cysteine ethyl ester (FIG. 19, FIG. 20). Type of data set: biochemical. As for the experimental part: L-Cysteine ethyl ester was utilized in identical peptide concentrations as a standard in order to calculate normalized reaction rates for each synthesized peptide.
[…] The assays were conducted in well buffer with 1 nM latent papain P13. In order to give a clear overview, only the normalized rates for activator concentrations of 50 nM are depicted and compared.
Additionally, 1 μM TCEP was added to each well of the cysteine concentration series in order to examine the influence of TCEP on reaction rates of thiols.
Different assays of reactivating latent papain in solution were conducted in the course of this work. Various buffer compositions, supplements, 96 well plates, substrates, activators, concentrations as well as different latent papain forms were compared. In order to get an overview of all experiments, a standard method is described in the following and variations of this method are subsequently defined. First, the well buffer was prepared (0.1 M phosphate buffer pH 7, 4 mM EDTA, 0.01% Brij35). A 1 mM TCEP solution was prepared with 3 mM NaOH in 0.1 M Tris-HCl buffer pH 8. Papain substrate (Z-Phe-Arg-AMC or Suc-Leu-Leu-Val-Tyr-AMC) was prepared as a 200 μM solution in water and transferred equally to a PCR strip. Three serial dilutions of the activating agent with well buffer were used in the different experiments and the corresponding pipetting schemes are shown in Table 9. Papain was diluted to 0.1 μM with well buffer and transferred equally to a PCR strip. […] 342.4 μL of TCEP containing well buffer was transferred to each well, followed by 3.8 μL papain solution. After mixing, 30 μL of the prepared activator concentrations (see Table 9) were added and mixed. In the last step, 3.8 μL of the substrate solution was added and mixed, to yield a final well composition of 0.1 M phosphate buffer pH 7, 1 nM papain, 2 μM substrate, activator (see Table 9), 4 mM EDTA, 0.01% Brij35 and 1 μM TCEP. For experiments with only one activator concentration of 10 μM, the transferred well buffer for each well was 368.6 μL, followed by 3.8 μL of papain, substrate and activator (1 mM in well buffer) respectively.

The conditions of data set [4]: Jacob et al., 2003; cited from earlier work.
The target of data set [5] is T1, papain. As to conditions: Ménard et al. 1990; cited from earlier work.
The conditions of data set [6]: Huber et al. 1967; cited from earlier work.
The target of data set [7] is T4, H2N-CFR-CONH2.
T4 chain: CFR

The target in data set [8] is T5, H2N-CLR-CONH2.
T5 chain: CLR

Data set [9] deals with T6, dU-triazole-PEG3-ULR dimer (21) (not fully specified).
T6 chain: ULR

Setting [10] is: FIG. 20, concentration series 50 nM-10 μM.
Where [11] appears, read: concentration series 50 nM-10 μM, papain P13 1 nM (FIG. 20).

Entries after “also recorded” stand apart in the source; their conditions may differ. Residues, ends and D or L forms follow the SMILES beside them. *: point of attachment. AMC = Cc1cc(=O)oc2cc(N*)ccc12; Cbz = O=C(OCc1ccccc1)*

Broadly, the Km is the substrate concentration at which the rate is half of its maximum. By kcat is commonly meant the maximal rate divided by the concentration of active sites. Broadly, the pKa is the negative logarithm of the acid dissociation constant.

As to `CN(C(=O)CS)N(C)C(=O)CS` [DMH, N,N-dimethyl-N,N′-bis(mercaptoacetyl)hydrazine], the “papain activation rate compared to DTT” value in data set [1] is 32 times.

For the molecule `CN(C)C(=O)[C@H](S)CC[C@H](S)C(=O)N(C)C` [DTA, meso-2,5-dimercapto-N,N,N,N-tetramethyladipamide], the “papain activation rate compared to DTT” value in data set [1] is reported as 4.5 times.

`N[C@H](CS)CCS` [DTBA (9), dithiobutylamine]: the “rate relative to DTT” value in data set [2] (activator 50 nM, 1 μM TCEP) is 13.6 times. Also, the “papain activation rate compared to DTT” value in data set [1] is 14 times.

As to `O[C@@H](CS)[C@@H](O)CS` [DTT], in data set [2], the “activator efficiency (normalized rate/rate blank), in words” value is given as “no substantial rate increase”.

As for `CCOC(=O)[C@@H](N)CS.Cl` [L-cysteine ethyl ester, L-Cysteine ethyl ester hydrochloride], in data set [2], the “activator efficiency (normalized rate/rate blank), in words” value was “no substantial rate increase”. Further, in [3] (setting [10]), the “potency relative to (L-)cysteine” value was “approximately 2.25 times”.

`N[C@@H](CS)C(=O)O` [L-cysteine]: the “redox potential E^0′” value in data set [4] is listed as −0.233 V. Also, in data set [3] (setting [11]), the “normalized rate compared to cysteine ethyl ester” value is recorded as “around 40%” and the “normalized rate compared to the tripeptide H2N-CLR-CONH2” value is given as “around 25%”.

Regarding `Cc1cc(=O)oc2cc(NC(=O)[C@H](CCCNC(=N)N)NC(=O)[C@H](Cc3ccccc3)NC(=O)OCc3ccccc3)ccc12` [Z-Phe-Arg-AMC, Z-Phe-Arg 7-amido-4-methylcoumarin] (Cbz-Phe-Arg-{AMC}), in data set [5], the Km is 420 µM and the kcat was 52 s⁻¹.

Consider `N[C@@H](C[SeH])C(=O)O` [selenocysteine], for which the “redox potential E^0′” value in data set [4] is −0.488 V. Also, in data set [6], the pKa was 5.2. Further, in [3] (setting [10]), the “activator efficiency, in words” value was “more potent activators compared to the tripeptide”. Further, in data set [3] (concentration series 50 nM-10 μM (FIG. 20), selenocysteine prepared with TCEP), the “rate relative to the tripeptide H2N-CLR-CONH2” value amounted to 6.5 times.

Turning to seleno-dithiobutylamin [SeDTBA (11)], the “activator efficiency (normalized rate/rate blank), in words” value in data set [2] is “second most efficient activator; also recorded: almost twice as high compared to DTBA (9)”.

B1: latent papain, reversibly inactivated with S-methyl methanethiosulfonate (-S-S-CH3) (protein)
chain: IPEYVDWRQKGAVTPVKNQGSCGSCWAFSAVVTIEGIIKIRTGNLNEYSEQELLDCDRRSYGCNGGYPWSALQLVAQYGIHYRNTYPYEGVQRYCRSREKGPYAAKTDGVRQVQPYNEGALLYSIANQPVSVVLEAAGKDFQLYRGGIFVGPCGNKVDHAVAAVGYGPNYILIKNSWGTGWGENGYIRIKRGTGNSYGVCGLYTSSFYPVKN
As to B1, the normalized ratio rate/rate 10 uM cysteine of substrate hydrolysis after reactivation of latent papain (1 nM), activator 10 uM (fold of the rate with L-cysteine) in data set [7] and in data set [8] was 2 each time. For the same molecule, the “normalized ratio rate/rate blank of substrate hydrolysis after reactivation of latent papain (1 nM) with activator 1-15 nM” value in data set [9] was “The normalized reaction rates for papain P20 now appeared the highest of all papain forms”.
